Counter-ions that a name gives are not always drawn.

Usually melting point stands for the temperature, or range, at which the solid turns liquid.

`CCN1CCN(c2nc(-c3ccc(C(=O)NCCO)cc3)cc3ccccc23)CC1` (as salt: hydrochloride) [Example 346, 1-(4-ethylpiperazin-1-yl)-3-{4-(N-(2-hydroxyethyl)carbamoyl]phenyl}isoquinoline dihydrochloride] displayed a melting point of 154 to 155 °C.

In turn, `CCN1CCN(c2nc(-c3ccc(S(=O)(=O)NCCO)cc3)cc3ccccc23)CC1` (as salt: hydrochloride) [Example 347, 1-(4-ethylpiperazin-1-yl)-3-{4-[N-(2-hydroxyethyl)sulfamoyl]phenyl}isoquinoline dihydrochloride] yielded a melting point of 136 to 138.5 °C.

`CCN1CCN(c2nc(-c3ccc(C(C)O)cc3)cc3ccccc23)CC1` (stereo not shown) (as salt: hydrochloride) [Example 348, 1-(4-ethylpiperazin-1-yl)-3-[4-(1-hydroxyethyl)phenyl]isoquinoline dihydrochloride]: the melting point lay within 135.5 to 136 °C.

`CCCS(=O)(=O)c1ccc(-c2cc3ccccc3c(N3CCN(CC)CC3)n2)cc1` (as salt: hydrochloride) [Example 349, 1-(4-ethylpiperazin-1-yl)-3-[4-propylsulfonyl)phenyl]isoquinoline dihydrochloride]: the melting point was 240.5 to 242 °C (dec.).

In turn, `CCN1CCN(c2nc(-c3ccc(S(=O)(=O)CCCOC)cc3)cc3ccccc23)CC1` (as salt: hydrochloride) [Example 350, 1-(4-ethylpiperazin-1-yl)-3-{4-[(3-methoxypropyl)sulfonyl]phenyl}isoquinoline] displayed a melting point of 177.5 to 180 °C.

The compound `CCN1CCN(c2nc(-c3ccc(CCO)cc3)cc3ccccc23)CC1` (as salt: hydrochloride) [Example 351, 1-(4-ethylpiperazin-1-yl)-3-[4-(2-hydroxyethyl)phenyl]isoquinoline dihydrochloride] yielded a melting point of 134 to 136 °C.

On to `CCN1CCN(c2nc(-c3ccc(S(=O)(=O)CCCO)cc3)cc3ccccc23)CC1` (as salt: hydrochloride) [Example 352, 1-(4-ethylpiperazin-1-yl)-3-[4-(3-hydroxypropyl)sulfonylphenyl]isoquinoline dihydrochloride], for which the melting point is 213 to 215 °C (dec.).

Consider `CCCNS(=O)(=O)c1ccc(-c2cc3ccccc3c(N3CCN(CC)CC3)n2)cc1` (as salt: hydrochloride) [Example 353, 1-(4-ethylpiperazin-1-yl)-3-[4-(N-propylsulfamoyl)phenyl]isoquinoline dihydrochloride], for which the melting point is 226.5 to 227.5 °C (dec.).

Turning to `CCN1CCN(c2nc(-c3ccc(S(=O)(=O)NCCOC)cc3)cc3ccccc23)CC1` (as salt: hydrochloride) [Example 354, 1-(4-ethylpiperazin-1-yl)-3-{4-[N-(2-methoxyethyl)sulfamoyl]phenyl}isoquinoline dihydrochloride], the melting point was 222 to 224 °C (dec.).

`CCN1CCN(c2nc(-c3ccc(S(=O)(=O)CCCF)cc3)cc3ccccc23)CC1` (as salt: hydrochloride) [Example 355, 1-(4-ethylpiperazin-1-yl)-3-[4-(3-fluoropropyl)sulfonylphenyl]isoquinoline dihydrochloride]: the melting point is 224 to 225 °C (dec.).

On to `CCN1CCN(c2nc(-c3ccc(S(=O)(=O)N4CCCC4)cc3)cc3ccccc23)CC1` (as salt: hydrochloride) [Example 356, 1-(4-ethylpiperazin-1-yl)-3-[4-(pyrrolidin-1-yl)sulfonylphenyl]isoquinoline dihydrochloride], for which the melting point is 238.5 to 240 °C (dec.).

In turn, `CCNS(=O)(=O)c1ccc(-c2cc3ccccc3c(N3CCN(CC)CC3)n2)cc1` (as salt: hydrochloride) [Example 357, 1-(4-ethylpiperazin-1-yl)-3-[4-(N-ethylsulfamoyl)phenyl]isoquinoline dihydrochloride] came in with a melting point of 147 to 149 °C.

As to `CCCN(C)S(=O)(=O)c1ccc(-c2cc3ccccc3c(N3CCN(CC)CC3)n2)cc1` (as salt: hydrochloride) [Example 358, 1-(4-ethylpiperazin-1-yl)-3-[4-(N-methyl-N-propylsulfamoyl)phenyl]isoquinoline dihydrochloride], the melting point was 199.5 to 200.5 °C (dec.).

For `CCN1CCN(c2nc(-c3ccc(S(=O)(=O)N(CC)CC)cc3)cc3ccccc23)CC1` (as salt: hydrochloride) [Example 359, 1-(4-ethylpiperazin-1-yl)-3-[4-(N,N-diethylsulfamoyl)phenyl]isoquinoline dihydrochloride], the melting point was 210 to 212 °C (dec.).

`CCC(C)NS(=O)(=O)c1ccc(-c2cc3ccccc3c(N3CCN(CC)CC3)n2)cc1` (stereo not shown) (as salt: hydrochloride) [Example 360, 1-(4-ethylpiperazin-1-yl)-3-{4-[N-(1-methylpropyl)sulfamoyl]phenyl}isoquinoline dihydrochloride] returned a melting point of 155 to 156 °C.

In the case of `CCN1CCN(c2nc(-c3ccc(S(=O)(=O)NC)cc3)cc3ccccc23)CC1` (as salt: hydrochloride) [Example 361, 1-(4-ethylpiperazin-1-yl)-3-[4-(N-methylsulfamoyl)phenyl]isoquinoline dihydrochloride], the melting point is 170 to 172 °C.

With `CCN1CCN(c2nc(-c3ccc(S(=O)(=O)N(C)C)cc3)cc3ccccc23)CC1` (as salt: hydrochloride) [Example 362, 1-(4-ethylpiperazin-1-yl)-3-[4-(N,N-dimethylsulfamoyl)phenyl]isoquinoline dihydrochloride], the melting point is 155 to 156 °C.

In the case of `CCN1CCN(c2nc(-c3ccc(S(=O)(=O)NC4CC4)cc3)cc3ccccc23)CC1` (as salt: hydrochloride) [Example 363, 1-(4-ethylpiperazin-1-yl)-3-[4-(N-cyclopropylsulfamoyl)phenyl]isoquinoline dihydrochloride], the melting point was 158 to 159.5 °C.

Compound `CCNC(=O)c1ccc(-c2cc3ccccc3c(N3CCN(CC)CC3)n2)cc1` (as salt: hydrochloride) [Example 364, 1-(4-ethylpiperazin-1-yl)-3-[4-(N-ethylcarbamoyl)phenyl]isoquinoline dihydrochloride] yielded a melting point of 160 to 160.5 °C.

As to `CCN1CCN(c2nc(-c3ccc(C(=O)NC)cc3)cc3ccccc23)CC1` (as salt: hydrochloride) [Example 365, 1-(4-ethylpiperazin-1-yl)-3-[4-(N-methylcarbamoyl)phenyl]isoquinoline dihydrochloride], the melting point was 161.5 to 163 °C.

The compound `CCN1CCN(c2nc(-c3ccc(S(=O)(=O)CC)cc3)cc3ccccc23)CC1` (as salt: hydrochloride) [Example 366, 1-(4-ethylpiperazin-1-yl)-3-[4-(ethylsulfonyl)phenyl]isoquinoline dihydrochloride] gave a melting point of 150 to 151.5 °C.

On to `CCN1CCN(c2nc(-c3ccc(OCCOC)c(F)c3)cc3ccccc23)CC1` (as salt: hydrochloride) [Example 367, 1-(4-ethylpiperazin-1-yl)-3-(3-fluoro-4-methoxyethoxyphenyl)isoquinoline dihydrochloride], for which the melting point fell in the range of 112.5 to 114 °C.

As to `CCN1CCN(c2nc(-c3cc(F)c(OCCOC)c(F)c3)cc3ccccc23)CC1` (as salt: hydrochloride) [Example 368, 1-(4-ethylpiperazin-1-yl)-3-(3,5-difluoro-4-methoxyethoxyphenyl)isoquinoline dihydrochloride], the melting point was in the range of 110 to 112 °C.

`CCN1CCN(c2nc(-c3ccc(OCCO)c(F)c3)cc3ccccc23)CC1` (as salt: hydrochloride) [Example 369, 1-(4-ethylpiperazin-1-yl)-3-[3-fluoro-4-(2-hydroxyethoxy)phenyl]isoquinoline dihydrochloride] had a melting point of 119 to 120 °C.

`CCN1CCN(c2nc(-c3cc(F)c(OCCO)c(F)c3)cc3ccccc23)CC1` (as salt: hydrochloride) [Example 370, 1-(4-ethylpiperazin-1-yl)-3-[3,5-difluoro-4-(2-hydroxyethoxy)phenyl]isoquinoline]: the melting point was in the range of 112.5 to 114 °C.

`CCN1CCN(c2nc(-c3cc(F)c(OCCF)c(F)c3)cc3ccccc23)CC1` (as salt: hydrochloride) [Example 371, 1-(4-ethylpiperazin-1-yl)-3-[3,5-difluoro-4-(2-fluoroethoxy)phenyl]isoquinoline dihydrochloride] showed a melting point of 105 to 105.5 °C.

Regarding `CCN1CCN(c2nc(-c3ccc(CC(C)=O)cc3)cc3ccccc23)CC1` (as salt: hydrochloride) [Example 375, 1-(4-ethylpiperazin-1-yl)-3-[4-(2-oxopropyl)phenyl]isoquinoline dihydrochloride], the melting point fell in the range of 125 to 126 °C.

For the compound `CCCNC(=O)c1ccc(-c2cc3ccccc3c(N3CCN(CC)CC3)n2)cc1F` (as salt: hydrochloride) [Example 384, 1-(4-Ethylpiperazin-1-yl)-3-[4-(N-Propylcarbamoyl)-3-Fluorophenyl]Isoquinoline Dihydrochloride], the melting point was 124 to 125 °C (dec.).

For the compound `CCN1CCN(c2nc(-c3ccc(CCO)c(F)c3)cc3ccccc23)CC1` (as salt: hydrochloride) [Example 385, 1-(4-Ethylpiperazin-1-yl)-3-[3-Fluoro-4-(2-Hydroxyethyl)Phenyl]Isoquinoline Dihydrochloride], the melting point was 213 to 215 °C (dec.).

For the compound `CCN1CCN(c2nc(-c3ccc(C(O)CO)cc3)cc3ccccc23)CC1` (stereo not shown) (as salt: hydrochloride) [Example 387, 1-(4-Ethylpiperazin-1-yl)-3-[4-(1,2-Dihydroxyethyl)Phenyl]Isoquinoline Dihydrochloride], the melting point was in the range of 132 to 133 °C.

In turn, `CCN1CCN(c2nc(-c3ccc(CCC(C)(C)O)cc3)cc3ccccc23)CC1` (as salt: hydrochloride) [Example 388, 1-(4-Ethylpiperazin-1-yl)-3-[4-(3-Hydroxy-3-Methylbutyl)Phenyl]Isoquinoline Dihydrochloride] showed a melting point of 205 to 206 °C.

Source of the values: patent publication US6875761B2 (Eisai Co., Ltd., priority 1997, dated 2005).
